From ChEMBL document CHEMBL5230092, “PFKFB3 inhibitors as potential anticancer agents: Mechanisms of action, current developments, and structure-activity relationships” (Eur J Med Chem, 2020) come the findings set out here.

The target in series [1] is T1, 6-phosphofructo-2-kinase/fructose-2,6-bisphosphatase 3 (Homo sapiens, UniProt Q16875). In words: Inhibition of PFKFB3 (unknown origin) incubated for 90 mins by ADP-Glo luminescent assay.
Series [2] has as its target T1, 6-phosphofructo-2-kinase/fructose-2,6-bisphosphatase 3. Briefly: Inhibition of PFKFB3 (unknown origin) by ADP-Glo luminescent assay.
Series [3] is described as follows: Metabolic stability in human liver microsomes assessed as clearance. It counts as ADME, Microsome. The conditions noted are these: read-out: CLH. (In general: Microsomes from liver hold many membrane-bound enzymes, among them those of drug oxidation.)
Series [4] can be described thus: Metabolic stability in mouse liver microsomes assessed as clearance. The series is classed as ADME, Microsome. Particulars: read-out: CLH.
In series [5] the target is T1, 6-phosphofructo-2-kinase/fructose-2,6-bisphosphatase 3. It counts as cell-based, PANC-1.
Series [6] shares this target. In words: Inhibition of full-length human PFKFB3 (1 to 520 residues) incubated for 2 hrs in presence of ATP by ADP-Glo assay. For orientation: ADP-Glo first removes unused ATP, then detects ADP through luciferase.
Series [7] can be described thus: Half life in iv dosed C57BL/6 mouse by LC-MS/MS analysis. It counts as ADME, organism-based. Particulars: in vivo.
The target in series [8] is T1, 6-phosphofructo-2-kinase/fructose-2,6-bisphosphatase 3. In words: Binding affinity to PFKFB3 (unknown origin) by MST assay.
Series [9] concerns A549. Briefly: Antiproliferative activity against human A549 cells assessed as cell growth inhibition measured after 72 hrs by MTT assay. It counts as functional. (In general: Tetrazolium dyes change colour on reduction, which living cells bring about.)
In series [10] the test system is HeLa. In words: Antiproliferative activity against human HeLa cells assessed as cell growth inhibition measured after 72 hrs by MTT assay. The series is classed as functional.
For series [11], the target named is T1, 6-phosphofructo-2-kinase/fructose-2,6-bisphosphatase 3. In words: Inhibition of PFKFB3 (unknown origin) at 100 uM relative to control.
Series [12] deals with MDA-MB-231. Briefly: Antiproliferative activity against human MDA-MB-231 cells assessed as cell growth inhibition measured after 72 hrs by MTT assay. The series is classed as functional.
Series [13] deals with HT-29. In words: Antiproliferative activity against human HT-29 cells assessed as cell growth inhibition measured after 72 hrs by MTT assay. It counts as functional.
The target in series [14] is T1, 6-phosphofructo-2-kinase/fructose-2,6-bisphosphatase 3. In words: Inhibition of PFKFB3 (unknown origin) at 250 nM relative to control.
The nature of series [15]: Half life in BALBc mouse at 10 mg/kg, iv by LC-MS/MS analysis. It counts as ADME, organism-based. The conditions noted are these: BALB/c, in vivo.
The nature of series [16]: Oral bioavailability in BALBc mouse by LC-MS/MS analysis. The series is classed as ADME, organism-based. Particulars: BALB/c, in vivo.
Series [17] is described as follows: AUC in BALBc mouse at 10 mg/kg, iv by LC-MS/MS analysis. Further details: dose 10 mg/kg, route iv. It counts as ADME, organism-based. The conditions noted are these: BALB/c, in vivo.
Series [18] deals with T1, 6-phosphofructo-2-kinase/fructose-2,6-bisphosphatase 3. In words: Inhibition of PFKFB3 (unknown origin) by UV-vis spectrophotometry.
For series [19] the target is unchanged. It counts as cell-based, MIA PaCa-2.
The target is the same in series [20]. The series is classed as cell-based, NUGC-3.
A short description of series [21]: Clearance in BALB/c mouse at 5 mg/kg, iv by LC-MS/MS analysis. The conditions noted are these: in vivo. The series is classed as ADME, organism-based.
A short description of series [22]: Toxicity in Sprague-Dawley rat assessed as maximum tolerated dose. Particulars: in vivo.
Series [23] is described as follows: Half life in BALB/c mouse at 5 mg/kg, iv by LC-MS/MS analysis. The series is classed as ADME, organism-based. Particulars: in vivo.
Series [24] in a line: AUC in BALB/c mouse at 5 mg/kg, iv by LC-MS/MS analysis. Details: dose 5 mg/kg, route iv. The series is classed as ADME, organism-based. Particulars: in vivo.
Series [25] can be described thus: Metabolic stability in human liver microsomes. The series is classed as ADME, Microsome.
A short description of series [26]: Cytotoxicity against human Epithelial cell assessed as cell growth inhibition. Particulars: epithelial cells. The series is classed as toxicity, cell-based.
A short description of series [27]: AUC in Sprague-Dawley rat at 10 mg/kg, iv by LC-MS/MS analysis. It counts as ADME, organism-based. The conditions noted are these: in vivo. Further details: dose 10 mg/kg, route iv.
Series [28] in a line: Volume of distribution in Sprague-Dawley rat at 10 mg/kg, iv by LC-MS/MS analysis. The conditions noted are these: in vivo. It counts as ADME, organism-based.
A short description of series [29]: Cmax in Sprague-Dawley rat at 10 mg/kg, iv by LC-MS/MS analysis. Further details: dose 10 mg/kg, route iv. The conditions noted are these: in vivo. It counts as ADME, organism-based.
The nature of series [30]: Oral bioavailability in Sprague-Dawley rat by LC-MS/MS analysis. The series is classed as ADME, organism-based. Particulars: in vivo.
The nature of series [31]: Half life in Sprague-Dawley rat at 10 mg/kg, iv by LC-MS/MS analysis. The series is classed as ADME, organism-based. The conditions noted are these: in vivo.
For series [32], the target named is 6-phosphofructo-2-kinase/fructose-2,6-bisphosphatase 1 (Homo sapiens) (UniProt P16118). Briefly: Inhibition of PFKFB1 (unknown origin) at 5.94 uM relative to control.
The target of series [33] is 6-phosphofructo-2-kinase/fructose-2,6-bisphosphatase 2 (Homo sapiens) (UniProt O60825). Briefly: Inhibition of PFKFB2 (unknown origin) at 5.94 uM relative to control.
Series [34] has as its target 6-phosphofructo-2-kinase/fructose-2,6-bisphosphatase 4 (Homo sapiens) (UniProt Q16877). Briefly: Inhibition of PFKFB4 (unknown origin) at 5.94 uM relative to control.
The nature of series [35]: Oral bioavailability in Beagle dog by LC-MS/MS analysis. The series is classed as ADME, organism-based, Canis lupus familiaris. Particulars: in vivo.
The nature of series [36]: Half life in Beagle dog at 6 mg/kg, iv by LC-MS/MS analysis. It counts as ADME, organism-based, Canis lupus familiaris. The conditions noted are these: in vivo.
Series [37] in a line: AUC in Beagle dog at 6 mg/kg, iv by LC-MS/MS analysis. It counts as ADME, organism-based, Canis lupus familiaris. Details: dose 6 mg/kg, route iv. Particulars: in vivo.
Series [38] concerns HeLa. Briefly: Antiproliferative activity against human HeLa cells assessed as cell growth inhibition. It counts as functional.
The target in series [39] is T1, 6-phosphofructo-2-kinase/fructose-2,6-bisphosphatase 3. Briefly: Inhibition of PFKFB3 (unknown origin).

Each structure is given as a SMILES string. Where only a bound is given, the exact number is not on record here.

T1 sequence (Q16875 whole entry): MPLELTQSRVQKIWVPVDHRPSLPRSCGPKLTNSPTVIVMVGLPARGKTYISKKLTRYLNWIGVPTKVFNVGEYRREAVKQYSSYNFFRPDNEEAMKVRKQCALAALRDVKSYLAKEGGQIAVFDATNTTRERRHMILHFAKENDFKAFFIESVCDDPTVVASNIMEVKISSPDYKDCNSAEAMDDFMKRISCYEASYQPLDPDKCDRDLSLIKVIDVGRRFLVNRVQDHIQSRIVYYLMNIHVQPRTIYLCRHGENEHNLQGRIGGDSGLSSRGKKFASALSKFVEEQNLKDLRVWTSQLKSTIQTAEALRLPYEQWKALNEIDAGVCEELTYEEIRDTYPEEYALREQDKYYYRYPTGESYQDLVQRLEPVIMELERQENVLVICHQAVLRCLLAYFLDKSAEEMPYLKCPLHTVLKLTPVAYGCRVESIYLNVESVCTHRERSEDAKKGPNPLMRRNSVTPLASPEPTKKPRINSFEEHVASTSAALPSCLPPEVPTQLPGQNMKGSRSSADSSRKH
Sequence of 6-phosphofructo-2-kinase/fructose-2,6-bisphosphatase 1 (Homo sapiens) (P16118 2-471 limits assumed): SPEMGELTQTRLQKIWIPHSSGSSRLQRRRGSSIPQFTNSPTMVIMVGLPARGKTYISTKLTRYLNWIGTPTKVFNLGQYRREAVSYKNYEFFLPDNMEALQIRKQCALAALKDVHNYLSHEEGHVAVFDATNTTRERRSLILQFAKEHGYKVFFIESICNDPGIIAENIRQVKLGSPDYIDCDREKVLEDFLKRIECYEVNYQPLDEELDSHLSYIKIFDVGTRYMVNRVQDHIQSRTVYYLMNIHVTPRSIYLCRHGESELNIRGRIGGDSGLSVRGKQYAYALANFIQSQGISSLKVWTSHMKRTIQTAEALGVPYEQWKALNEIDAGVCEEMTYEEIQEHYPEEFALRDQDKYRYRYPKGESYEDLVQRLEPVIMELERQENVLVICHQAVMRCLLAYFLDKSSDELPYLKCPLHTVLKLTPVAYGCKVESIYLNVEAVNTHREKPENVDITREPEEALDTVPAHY
Sequence of 6-phosphofructo-2-kinase/fructose-2,6-bisphosphatase 4 (Homo sapiens) (Q16877 whole entry, looked up): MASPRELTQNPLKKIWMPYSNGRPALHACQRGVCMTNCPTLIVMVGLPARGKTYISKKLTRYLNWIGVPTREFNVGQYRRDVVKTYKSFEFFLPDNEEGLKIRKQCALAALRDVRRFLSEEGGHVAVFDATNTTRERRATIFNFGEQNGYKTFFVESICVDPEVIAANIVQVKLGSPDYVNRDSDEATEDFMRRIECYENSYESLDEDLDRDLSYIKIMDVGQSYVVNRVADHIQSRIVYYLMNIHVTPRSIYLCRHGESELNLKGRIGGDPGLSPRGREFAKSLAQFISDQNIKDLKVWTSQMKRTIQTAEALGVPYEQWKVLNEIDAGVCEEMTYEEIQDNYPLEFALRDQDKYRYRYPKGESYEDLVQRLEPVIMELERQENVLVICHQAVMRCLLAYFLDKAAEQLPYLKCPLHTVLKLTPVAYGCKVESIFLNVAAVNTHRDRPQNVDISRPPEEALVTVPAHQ
Sequence of 6-phosphofructo-2-kinase/fructose-2,6-bisphosphatase 2 (Homo sapiens) (O60825 2-505 limits assumed): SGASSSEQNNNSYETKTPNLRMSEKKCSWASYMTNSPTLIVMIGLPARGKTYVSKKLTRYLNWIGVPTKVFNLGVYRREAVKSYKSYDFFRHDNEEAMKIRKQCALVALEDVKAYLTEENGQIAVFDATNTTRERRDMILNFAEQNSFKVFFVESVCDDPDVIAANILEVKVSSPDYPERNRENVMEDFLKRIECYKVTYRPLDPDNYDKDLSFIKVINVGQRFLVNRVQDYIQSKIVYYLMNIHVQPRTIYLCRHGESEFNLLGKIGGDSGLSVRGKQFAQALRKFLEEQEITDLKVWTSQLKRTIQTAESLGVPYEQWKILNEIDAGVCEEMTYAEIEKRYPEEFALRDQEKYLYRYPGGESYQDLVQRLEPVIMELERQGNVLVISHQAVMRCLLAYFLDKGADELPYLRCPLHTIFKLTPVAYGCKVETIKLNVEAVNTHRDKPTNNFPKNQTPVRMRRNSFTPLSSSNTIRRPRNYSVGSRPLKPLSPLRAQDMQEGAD

The term IC50 denotes the midpoint of a concentration-inhibition curve. `COc1ccc(C(Nc2cc(-c3ccc4ccn(C)c4c3)c3nccnc3c2)c2cnnn2C)cn1` (stereo not given) registered an IC50 in series [1] of 0.0035 µM.

In series [2], `O=C(O)c1ccc(NS(=O)(=O)c2cc(Cl)sc2Cl)cc1O` had an IC50 of 0.29 µM. Regarding `Cn1cc([C@H](Nc2cc(-c3ccc4ccn(C)c4c3)c3nccnc3c2)c2cnnn2C)cn1`, the microsomal CLint in series [3] is 50 µL/min/mg; in [4], 29 µL/min/mg.

On to `Cc1c(S(=O)(=O)Nc2cccc(C(=O)O)c2)sc2ccc(C(C)C)cc12`, for which inhibition in [5] was half-maximal at 2.3 µM (IC50). In the case of `O=C1NC=NC2C1C=C(c1ccc(Br)cc1)N2c1ccccc1` (stereo not given), in [6], the IC50 came out at 0.398 µM.

With `O=C1NC=NC2C1C(c1ccc(Cl)cc1)=CN2c1ccccc1` (stereo not given), the half-maximal inhibitory concentration (IC50) in series [6] was 0.631 µM. As usually defined, the half-life is the time in which the quantity being followed falls by half. Low readings indicate fast loss, high ones slow loss. `O=C(/C=C/c1ccc2ccccc2n1)c1ccncc1` showed a half-life in series [7] of 5.1 h.

In series [8], `CC(C)C[C@H](NC(=O)[C@H](Cc1ccccc1)NC(=O)CNC(=O)[C@H](CO)NC(=O)[C@@H](N)Cc1ccc(O)cc1)C(=O)N[C@H](C(=O)O)[C@@H](C)O` had a K of 44 µM.

`O=C1NC=NC2C1C(c1ccccc1)=CN2c1ccc(Br)cc1` (stereo not given): the IC50 in [6] worked out at 0.398 µM. In the case of `O=C(O)c1ccc(NS(=O)(=O)c2cccc(-c3ccc4ncccc4c3)c2)cc1O`, the IC50 in [2] amounted to 0.28 µM. On to `CC(C)C[C@H](NC(=O)[C@H](CC(C)C)NC(=O)[C@H](Cc1ccccc1)NC(=O)[C@@H](N)CO)C(=O)N[C@@H](CCCN=C(N)N)C(N)=O`, for which, in series [8], the K was 18 µM.

For orientation: GI50 means the concentration that inhibits growth by half. For orientation: inhibition means how much of the control response was suppressed. Low readings indicate a weak effect, high ones a strong effect. As for `Cc1ccc(/C=N/NC(=O)c2nnn(-c3nonc3N)c2-c2ccc([N+](=O)[O-])cc2)cc1`, the 50% growth inhibitory concentration (GI50) in series [9] is 18 µM; in series [10], 15.1 µM; in [12] it was 18 µM; in series [13] it was 18 µM. For the same compound, the inhibition in series [11] stood at 17%. In series [8], `N[C@H](Cc1c[nH]c2ccccc12)C(=O)NCC(=O)N[C@H](Cc1ccc(O)cc1)C(=O)O` gave a K of 3 µM. A word on the bioavailability: it is dose-corrected exposure relative to a reference, in per cent. What is called AUC is the area under the concentration-time curve, a measure of exposure. Higher therefore signals high exposure. In [14], `O=C(c1ccccc1)c1cc2c(ccc3ccccc32)[nH]1` yielded an inhibition of 13.5%. This compound gave a half-life in series [15] of 2.1 h. Further, the bioavailability in [16] was 25%. Further, the exposure (AUC) in series [17] turned out to be 2630 ng·h/mL.

`COc1cccc([C@H](C)Nc2cc(-c3ccc4ncsc4c3)nc(C)n2)c1` had an IC50 in [18] of less than 0.5 µM. With `O=C(OCCO)c1ccc(NS(=O)(=O)c2cccc(-c3cc(F)ccc3O)c2)cc1O`, the IC50 in [19], in series [20] and in [5] was 0.09 µM in each case.

`CC(C)OC(=O)c1cccc(-c2cc(S(=O)(=O)Nc3ccc(C(=O)O)c(O)c3)sc2Cl)c1` came in with an IC50 in series [2] of 0.15 µM. The term clearance denotes the rate of elimination divided by the concentration. As usually defined, the MTD is the largest dose that counted as tolerated. In the case of `O=C(/C=C/c1ccc2ccc(C(F)(F)F)cc2n1)c1ccncc1` [PFK-158], the clearance in series [21] is 26 mL/min/kg. For the same compound, the MTD in series [22] was more than 40 mg/kg. Further, the half-life in [23] was 10.5 h. The compound also returned an AUC in [24] of 3240 ng·h/mL. In series [25], the Stability is listed as 37%. For the compound `O=C(/C=C/c1cccnc1)c1ccncc1`, the IC50 in series [26] is 1.4 µM. `O=C(O)c1ccc(NS(=O)(=O)c2cc(-c3ccc4c(c3)OCO4)c(Cl)s2)cc1O` registered an IC50 in series [2] of 0.2 µM. As usually defined, the Vd is the apparent volume that relates the amount in the body to the concentration in plasma or blood. Broadly, the Cmax is the highest concentration seen after dosing. Regarding `Cl.O=C(c1ccncc1)c1cc2c(ccc3ccccc32)[nH]1`, the inhibition in series [14] stood at 26.2%. In series [27], this compound returned an AUC of 1290 ng·h/mL. Also, in [28], the Vd is 2.5 L/kg. In addition, the Cmax in [29] stood at 16900 ng/mL. This compound yielded a bioavailability in series [30] of 38%. Further, in [31], the half-life is 5.5 h.

Take `COc1ccc(C2=CN(c3cccc(OC)c3)C3N=CNC(=O)C23)cc1` (stereo not given): the IC50 in series [6] came to 0.251 µM. For the compound `O=c1cc(-c2ccc(O)cc2)oc2c(O)c(O)c(O)c(O)c12`, the inhibition in [32], in [33] and in series [34] was less than 50% in each case. Regarding `Nc1ccc(C(=O)c2cc3c(ccc4ccccc43)[nH]2)cc1`, the inhibition in series [14] was found to be 81.5%. The compound also came in with a bioavailability in series [35] of 95%. Also, the half-life in [36] is 5.8 h. In addition, the exposure (AUC) in series [37] was 5070 ng·h/mL. On to `CCOC(=O)c1cc2ccc(O)cc2oc1=O`, for which the GI50 in series [38] was 2.7 µM. `O=C(CBr)NCCOP(=O)(O)O` yielded an IC50 in series [39] of 2000 µM.
